PubChem BioAssay AID328 (DTP/NCI, 2004)
Several values for one entry are separate records, joined by “and”; a condition that tells them apart may be missing. Equal entries are not always repeated. Inconclusive results and toxic doses are left out.

System: BDF1 mice, P388 leukemia ip, median survival T/C
Experiment: NCI In Vivo Anticancer Drug Screen. Data for tumor model P388 Leukemia (intraperitoneal) in B6D2F1 (BDF1) mice
Conditions: endpoint: median survival time, higher = longer survival
Method in brief: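 Vehicle-dosed animals serve as the reference; survival of compound-dosed, tumour-implanted mice is divided by it.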

[1] = dose: 100.0 mg/kg/injection, schedule: Q04DX003 (ip), vehicle: DMSO
[2] = dose: 50.0 mg/kg/injection, schedule: Q01DX009 (ip), vehicle: saline with Tween-80
[3] = dose: 100.0 mg/kg/injection, schedule: Q01DX009 (ip), vehicle: saline with Tween-80
[4] = dose: 100.0 mg/kg/injection, schedule: Q04DX003 (ip), vehicle: saline with Tween-80
[5] = dose: 200.0 mg/kg/injection, schedule: Q01DX009 (ip), vehicle: saline with Tween-80
[6] = dose: 200.0 mg/kg/injection, schedule: Q04DX003 (ip), vehicle: saline with Tween-80
[7] = dose: 50.0 mg/kg/injection, schedule: Q01DX009 (ip), vehicle: saline
[8] = dose: 100.0 mg/kg/injection, schedule: Q04DX003 (ip), vehicle: Klucel (hydroxypropylcellulose) (HPC)
[9] = dose: 200.0 mg/kg/injection, schedule: Q04DX003 (ip), vehicle: Klucel (hydroxypropylcellulose) (HPC)

For `O=C1C=C/C(=N/S(=O)(=O)c2ccccc2)c2ccccc21`, the T/C (dose: 0.37 mg/kg/injection, schedule: Q01DX009 (ip), vehicle: DMSO) was 100 % of control, the T/C (dose: 0.75 mg/kg/injection, schedule: Q01DX009 (ip), vehicle: DMSO) was 100 % of control and the T/C (dose: 1.5 mg/kg/injection, schedule: Q01DX009 (ip), vehicle: DMSO) was 100 % of control. For the same molecule, the T/C (dose: 12.0 mg/kg/injection, schedule: Q01DX009 (ip), vehicle: DMSO) was 92 % of control, the T/C (dose: 25.0 mg/kg/injection, schedule: Q04DX003 (ip), vehicle: DMSO) was 91 % of control and the T/C (dose: 50.0 mg/kg/injection, schedule: Q04DX003 (ip), vehicle: DMSO) was 104 % of control. The T/C [1] was 100 % of control.

For `CC(=O)N(C(C)=O)c1ccc(N=Nc2ccccc2C)cc1C`, the T/C [2] was 90 % of control, the T/C [3] was 90 % of control and the T/C [4] was 95 % of control. For the same molecule, the T/C [5] was 86 % of control, the T/C [6] was 100 % of control and the T/C (dose: 400.0 mg/kg/injection, schedule: Q04DX003 (ip), vehicle: saline with Tween-80) was 100 % of control.

With `CCOC(=O)c1cc(-c2ccccc2)[nH]c1-c1ccccc1` the T/C [7] was 96 % of control, the T/C (dose: 100.0 mg/kg/injection, schedule: Q01DX009 (ip), vehicle: saline) was 100 % of control and the T/C (dose: 200.0 mg/kg/injection, schedule: Q01DX009 (ip), vehicle: saline) was 98 % of control.

For `O=C(O)CCC(=O)c1cccc2ccccc12`, the T/C (dose: 50.0 mg/kg/injection, schedule: Q01DX001 (ip), vehicle: other) was 100 % of control, the T/C (dose: 50.0 mg/kg/injection, schedule: Q04DX003 (ip), vehicle: Klucel (hydroxypropylcellulose) (HPC)) was 104 % of control and the T/C (dose: 100.0 mg/kg/injection, schedule: Q01DX001 (ip), vehicle: other) was 90 % of control. The T/C [8] was 100 % of control, the T/C (dose: 200.0 mg/kg/injection, schedule: Q01DX001 (ip), vehicle: other) was 100 % of control and the T/C [9] was 113 % of control.

For `CC(=O)CC(Cl)(C(F)(F)F)C(F)(F)F`, the T/C (dose: 50.0 mg/kg/injection, schedule: Q04DX003 (ip), vehicle: saline with Tween-80) was 100 % of control, the T/C [4] was 100 % of control and the T/C [6] was 109 % of control.

In the case of `CCOC(=O)CCN(CCCN(C)C)c1cc(O)c2c(c1O)C(=O)c1ccccc1C2=O`, the T/C (dose: 50.0 mg/kg/injection, schedule: Q01DX005 (ip), vehicle: saline with Tween-80) is reported as 89 % of control, the T/C (dose: 100.0 mg/kg/injection, schedule: Q01DX005 (ip), vehicle: saline with Tween-80) is reported as 103 % of control and the T/C (dose: 200.0 mg/kg/injection, schedule: Q01DX005 (ip), vehicle: saline with Tween-80) is reported as 108 % of control.

With `O=C(/C=C\c1ccc(O)cc1)c1ccccc1` the T/C (dose: 100.0 mg/kg/injection, schedule: Q01DX009 (ip), vehicle: Klucel (hydroxypropylcellulose) (HPC)) was 105 % of control, the T/C [8] was 108 % of control and the T/C (dose: 200.0 mg/kg/injection, schedule: Q01DX009 (ip), vehicle: Klucel (hydroxypropylcellulose) (HPC)) was 110 % of control. The T/C [9] was 100 % of control, the T/C (dose: 400.0 mg/kg/injection, schedule: Q01DX009 (ip), vehicle: Klucel (hydroxypropylcellulose) (HPC)) was 110 % of control and the T/C (dose: 400.0 mg/kg/injection, schedule: Q04DX003 (ip), vehicle: Klucel (hydroxypropylcellulose) (HPC)) was 104 % of control.

In the case of `CS(=O)(=O)OCC(O)C(O)COS(C)(=O)=O` (centres undefined), the T/C (dose: 50.0 mg/kg/injection, schedule: Q01DX010 (ip), vehicle: saline) is reported as 109 % of control, the T/C [3] is reported as 91 % of control and the T/C (dose: 100.0 mg/kg/injection, schedule: Q01DX010 (ip), vehicle: saline) is reported as 109 % of control. The T/C [5] was 100 % of control, the T/C (dose: 200.0 mg/kg/injection, schedule: Q01DX010 (ip), vehicle: saline) was 100 % of control and the T/C (dose: 400.0 mg/kg/injection, schedule: Q01DX009 (ip), vehicle: saline with Tween-80) was 87 % of control. For the same molecule, the T/C (dose: 400.0 mg/kg/injection, schedule: Q01DX010 (ip), vehicle: saline) was 209 % of control and the T/C (dose: 800.0 mg/kg/injection, schedule: Q01DX010 (ip), vehicle: saline) was 163 % of control.

With `Cc1c(Cl)cccc1NC(=O)Nc1ccccc1` the T/C [1] was 103 % of control, the T/C (dose: 200.0 mg/kg/injection, schedule: Q04DX003 (ip), vehicle: DMSO) was 100 % of control and the T/C (dose: 400.0 mg/kg/injection, schedule: Q04DX003 (ip), vehicle: DMSO) was 107 % of control.

For `CCCCCCOB(OCCCCCC)OCCCCCC`, the T/C (dose: 22.5 mg/kg/injection, schedule: Q01DX009 (ip), vehicle: saline with Tween-80) was 94 % of control, the T/C (dose: 45.0 mg/kg/injection, schedule: Q01DX009 (ip), vehicle: saline with Tween-80) was 97 % of control and the T/C (dose: 90.0 mg/kg/injection, schedule: Q01DX009 (ip), vehicle: saline with Tween-80) was 102 % of control.

With `CCCCCC1=NC(C)(C(=O)OC)OO1` (centres undefined) the T/C (dose: 25.0 mg/kg/injection, schedule: Q01DX009 (ip), vehicle: saline with Tween-80) was 114 % of control and the T/C [2] was 112 % of control.

In the case of `CC1CN1P(=S)(N1CCCC1)N1CC1C` (centres undefined), the T/C (dose: 17.8 mg/kg/injection, schedule: Q01DX009 (ip), vehicle: saline with Tween-80) is reported as 112 % of control, the T/C (dose: 26.6 mg/kg/injection, schedule: Q01DX009 (ip), vehicle: saline with Tween-80) is reported as 114 % of control and the T/C (dose: 40.0 mg/kg/injection, schedule: Q01DX009 (ip), vehicle: saline with Tween-80) is reported as 168 % of control. For the same molecule, the T/C [2] was 150 % of control, the T/C (dose: 60.0 mg/kg/injection, schedule: Q01DX009 (ip), vehicle: saline with Tween-80) was 214 % of control and the T/C [3] was 170 % of control.

`Cc1cc(C)c(-c2cc(O)c(C)cc2O)c(C)c1` was tested, and the T/C (dose: 0.39 mg/kg/injection, schedule: Q04DX003 (ip), vehicle: other) was 103 % of control, the T/C (dose: 0.78 mg/kg/injection, schedule: Q04DX003 (ip), vehicle: other) was 108 % of control and the T/C (dose: 1.56 mg/kg/injection, schedule: Q04DX003 (ip), vehicle: other) was 104 % of control. The T/C (dose: 3.12 mg/kg/injection, schedule: Q04DX003 (ip), vehicle: other) was 90 % of control and 108 % of control, the T/C (dose: 6.25 mg/kg/injection, schedule: Q04DX003 (ip), vehicle: other) was 88 % of control and 100 % of control and the T/C (dose: 12.5 mg/kg/injection, schedule: Q01DX009 (ip), vehicle: other) was 97 % of control. For the same molecule, the T/C (dose: 12.5 mg/kg/injection, schedule: Q04DX003 (ip), vehicle: other) was 108 % of control and 109 % of control, the T/C (dose: 25.0 mg/kg/injection, schedule: Q01DX009 (ip), vehicle: other) was 118 % of control and the T/C (dose: 25.0 mg/kg/injection, schedule: Q04DX003 (ip), vehicle: other) was 92 % of control. The T/C (dose: 25.0 mg/kg/injection, schedule: Q04DX003 (ip), vehicle: saline with Tween-80) was 100 % of control, the T/C (dose: 65.0 mg/kg/injection, schedule: Q04DX003 (ip), vehicle: Klucel (hydroxypropylcellulose) (HPC)) was 105 % of control and the T/C (dose: 100.0 mg/kg/injection, schedule: Q01DX009 (ip), vehicle: other) was 102 % of control. The T/C [8] was 114 % of control, the T/C (dose: 150.0 mg/kg/injection, schedule: Q04DX003 (ip), vehicle: Klucel (hydroxypropylcellulose) (HPC)) was 109 % of control and the T/C [6] was 93 % of control.

With `OCCN(CCO)C(CO)(CO)CO` the T/C (dose: 50.0 mg/kg/injection, schedule: Q01DX005 (ip), vehicle: saline) was 100 % of control, the T/C (dose: 100.0 mg/kg/injection, schedule: Q01DX005 (ip), vehicle: saline) was 98 % of control and the T/C (dose: 200.0 mg/kg/injection, schedule: Q01DX005 (ip), vehicle: saline) was 104 % of control.

For `CS(C)=O.CS(C)=O.[Cl][Rh]([Cl])([Cl])[Cl]`, the T/C (dose: 12.5 mg/kg/injection, schedule: Q01DX009 (ip), vehicle: saline) was 120 % of control, the T/C (dose: 22.0 mg/kg/injection, schedule: Q01DX009 (ip), vehicle: saline) was 116 % of control and 120 % of control and the T/C (dose: 33.0 mg/kg/injection, schedule: Q01DX009 (ip), vehicle: saline) was 95 % of control and 116 % of control. For the same molecule, the T/C [7] was 166 % of control.

For `COc1ccc2c(c1)CCNC2CCO` (centres undefined), the T/C (dose: 25.0 mg/kg/injection, schedule: Q04DX003 (ip), vehicle: saline) was 120 % of control, the T/C (dose: 50.0 mg/kg/injection, schedule: Q04DX003 (ip), vehicle: saline) was 110 % of control and the T/C (dose: 100.0 mg/kg/injection, schedule: Q04DX003 (ip), vehicle: saline) was 120 % of control.

`CN(C)N=Nc1ccccc1` was tested, and the T/C (dose: 31.25 mg/kg/injection, schedule: Q01DX009 (ip), vehicle: Klucel (hydroxypropylcellulose) (HPC)) was 103 % of control, the T/C (dose: 82.0 mg/kg/injection, schedule: Q04DX003 (ip), vehicle: Klucel (hydroxypropylcellulose) (HPC)) was 110 % of control and the T/C (dose: 125.0 mg/kg/injection, schedule: Q04DX003 (ip), vehicle: saline) was 90 % of control.
